Data: ChEMBL document CHEMBL4602605, “Fluoroquinolones structural and medicinal developments (2013-2018): Where are we now?” (Bioorg Med Chem, 2019)
Values after ≈ are worked out from the molar mass of the structure shown.

Key:
Pseudomonas aeruginosa [1] = test: Antimicrobial activity against Pseudomonas aeruginosa ATCC 27853 incubated for 18 to 24 hrs by disk diffusion method; assay type: functional
Escherichia coli [2] = test: Antimicrobial activity against Escherichia coli ATCC 25922 incubated for 18 to 24 hrs by disk diffusion method; assay type: functional
Staphylococcus aureus [3] = test: Antimicrobial activity against Staphylococcus aureus ATCC 25923 incubated for 18 to 24 hrs by disk diffusion method; assay type: functional
Bacillus subtilis = test: Antimicrobial activity against Bacillus subtilis 10B incubated for 18 to 24 hrs by disk diffusion method; assay type: functional
PC-3 = test: Growth inhibition of human PC3 cells by MTT assay; assay type: functional, cell-based
Aspergillus clavatus = test: Antifungal activity against Aspergillus clavatus after overnight incubation by agar well diffusion method; assay type: functional
Helicobacter pylori [4] = test: Antimicrobial activity against Helicobacter pylori clinical isolate 1 after 7 days by two-fold agar dilution method; assay type: functional; details: clinical isolate 1, 168 h
Helicobacter pylori [5] = test: Antimicrobial activity against Helicobacter pylori clinical isolate 2 after 7 days by two-fold agar dilution method; assay type: functional; details: clinical isolate 2, 168 h
Escherichia coli [6] = test: Antimicrobial activity against Escherichia coli ATCC 8739 by agar dilution method; assay type: functional
Staphylococcus aureus [7] = test: Antimicrobial activity against Staphylococcus aureus ATCC 6538 by agar dilution method; assay type: functional
Pseudomonas aeruginosa [8] = test: Antimicrobial activity against Pseudomonas aeruginosa ATCC 9027 by agar well diffusion method; assay type: functional
Candida albicans = test: Antifungal activity against Candida albicans after overnight incubation by agar well diffusion method; assay type: functional
Pseudomonas aeruginosa [9] = test: Antimicrobial activity against Pseudomonas aeruginosa ATCC 43288 incubated for 18 to 24 hrs by microbroth dilution method; assay type: functional
Staphylococcus aureus [10] = test: Antimicrobial activity against Staphylococcus aureus ATCC 25923 incubated for 18 to 24 hrs by microbroth dilution method; assay type: functional
Enterococcus faecalis = test: Antimicrobial activity against Enterococcus faecalis ATCC 29212 incubated for 18 to 24 hrs by microbroth dilution method; assay type: functional
Bacillus cereus = test: Antimicrobial activity against Bacillus cereus 709 Roma incubated for 18 to 24 hrs by microbroth dilution method; assay type: functional
[11] = test system: Mycolicibacterium smegmatis; test: Antimicrobial activity against Mycobacterium smegmatis ATCC 607 incubated for 48 to 72 hrs by microbroth dilution method; assay type: functional

CCn1cc(C(=O)O)c(=O)c2cc(F)c(Nn3c(=O)cc[nH]c3=O)c(F)c21
MIC (Pseudomonas aeruginosa [1]): > 500 µg/mL | MIC (Escherichia coli [2]): 120 µg/mL (≈ 317 µM) | MIC (Staphylococcus aureus [3]): 310 µg/mL (≈ 819 µM) | MIC (Bacillus subtilis): > 500 µg/mL

COc1c(N2CCN(C)CC2)c(F)cc2c(=O)c(C(=O)N/N=C\c3cc(Br)ccc3O)cn(C3CC3)c12
IC50 (PC-3): 12 µg/mL (≈ 21 µM) | inhibition zone (IZ) (Aspergillus clavatus): 12 mm

COc1c(N2CCN(C)CC2)c(F)cc2c(=O)c(C(=O)N/N=C\c3ccc(F)cc3)cn(C3CC3)c12
inhibition zone (IZ) (Aspergillus clavatus): 11 mm

COc1ccc(Nc2c(F)cc3c(=O)c(C(=O)O)cn(C4CC4)c3c2N)cc1
MIC (Helicobacter pylori [4]): 2.5 µg/mL (≈ 6.52 µM) | MIC (Helicobacter pylori [5]): 5 µg/mL (≈ 13 µM)

CCn1cc(C(=O)O)c(=O)c2cc(F)c(N3CCNC(C)C3)c(Cl)c21 (centres undefined)
MIC (Escherichia coli [6]): 0.3 µg/mL (≈ 0.816 µM) | MIC (Staphylococcus aureus [7]): 1.21 µg/mL (≈ 3.29 µM) | MIC (Pseudomonas aeruginosa [8]): 4.83 µg/mL (≈ 13.1 µM)

CCn1cc(C(=O)O)c(=O)c2cc(F)c(NNc3n[nH]c(N)n3)c(F)c21
MIC (Pseudomonas aeruginosa [1]): > 500 µg/mL | MIC (Escherichia coli [2]): 390 µg/mL (≈ 1070 µM) | MIC (Staphylococcus aureus [3]): 240 µg/mL (≈ 657 µM) | MIC (Bacillus subtilis): > 500 µg/mL

CCn1cc(C(=O)O)c(=O)c2cc(F)c(N3CCNCC3)c(Cl)c21
MIC (Escherichia coli [6]): 2 µg/mL (≈ 5.65 µM) | MIC (Staphylococcus aureus [7]): 4 µg/mL (≈ 11.3 µM) | MIC (Pseudomonas aeruginosa [8]): 32 µg/mL (≈ 90.5 µM)

CCn1cc(C(=O)O)c(=O)c2cc(F)c(N3CCNC(C)C3)c(Cl)c21.Cl (centres undefined)
MIC (Escherichia coli [6]): 31.2 µg/mL | MIC (Staphylococcus aureus [7]): 2 µg/mL | MIC (Pseudomonas aeruginosa [8]): 128 µg/mL

CCn1cc(C(=O)O)c(=O)c2cc(F)c(N3CCOCC3)cc21
MIC (Escherichia coli [6]): 16 µg/mL (≈ 50 µM) | MIC (Staphylococcus aureus [7]): 0.32 µg/mL (≈ 0.999 µM) | MIC (Pseudomonas aeruginosa [8]): 128 µg/mL (≈ 400 µM)

O=C(O)c1cn(C2CC2)c2c(cc(F)c3c2nnn3-c2ccc(Cl)cc2)c1=O
MIC (Helicobacter pylori [4]): 5 µg/mL (≈ 12.5 µM) | MIC (Helicobacter pylori [5]): 2.5 µg/mL (≈ 6.27 µM)

CCn1cc(C(=O)O)c(=O)c2cc(F)c(F)cc21
MIC (Pseudomonas aeruginosa [1]): 138 µg/mL (≈ 547 µM) | MIC (Escherichia coli [2]): 24.6 µg/mL (≈ 97.3 µM) | MIC (Staphylococcus aureus [3]): 369 µg/mL (≈ 1460 µM) | MIC (Bacillus subtilis): 29.6 µg/mL (≈ 117 µM)

CCn1cc(C(=O)O)c(=O)c2cc(F)c(N3CCCCC3)cc21
MIC (Escherichia coli [6]): 32 µg/mL (≈ 101 µM) | MIC (Staphylococcus aureus [7]): < 0.125 µg/mL | MIC (Pseudomonas aeruginosa [8]): 1.28 µg/mL (≈ 4.02 µM)

Cc1ccc(Nc2c(F)cc3c(=O)c(C(=O)O)cn(C4CC4)c3c2N)cc1
MIC (Helicobacter pylori [4]): 5 µg/mL (≈ 13.6 µM) | MIC (Helicobacter pylori [5]): 2.5 µg/mL (≈ 6.8 µM)

COc1c(N2CCN(C)CC2)c(F)cc2c(=O)c(C(=O)N/N=C\c3ccc([N+](=O)[O-])cc3)cn(C3CC3)c12
IC50 (PC-3): 15 µg/mL (≈ 28.7 µM) | inhibition zone (IZ) (Aspergillus clavatus): 8 mm | inhibition zone (IZ) (Candida albicans): 10 mm

CCn1cc(C(=O)O)c(=O)c2cc(F)c(NNc3ncccn3)c(F)c21
MIC (Pseudomonas aeruginosa [1]): > 500 µg/mL | MIC (Escherichia coli [2]): 120 µg/mL (≈ 332 µM) | MIC (Staphylococcus aureus [3]): 150 µg/mL (≈ 415 µM) | MIC (Bacillus subtilis): > 500 µg/mL

COc1ccc(-n2nnc3c4c(cc(F)c32)c(=O)c(C(=O)O)cn4C2CC2)cc1
MIC (Helicobacter pylori [4]): 2.5 µg/mL (≈ 6.34 µM) | MIC (Helicobacter pylori [5]): 1.3 µg/mL (≈ 3.3 µM)

CCn1cc(C(=O)O)c(=O)c2cc(F)c(N3CCN(C)CC3)c(Cl)c21
MIC (Escherichia coli [6]): 2 µg/mL (≈ 5.44 µM) | MIC (Staphylococcus aureus [7]): 4 µg/mL (≈ 10.9 µM) | MIC (Pseudomonas aeruginosa [8]): 1 µg/mL (≈ 2.72 µM)

CCn1cc(C(=O)O)c(=O)c2cc(F)c(N3CCCCC3)c(Cl)c21
MIC (Escherichia coli [6]): 128 µg/mL (≈ 363 µM) | MIC (Staphylococcus aureus [7]): 2 µg/mL (≈ 5.67 µM) | MIC (Pseudomonas aeruginosa [8]): 128 µg/mL (≈ 363 µM)

CCn1cc(C(=O)O)c(=O)c2cc(F)c(N3CCCC(C)C3)c(Cl)c21 (centres undefined)
MIC (Escherichia coli [6]): 8 µg/mL (≈ 21.8 µM) | MIC (Staphylococcus aureus [7]): 2 µg/mL (≈ 5.45 µM) | MIC (Pseudomonas aeruginosa [8]): 128 µg/mL (≈ 349 µM)

CCn1cc(C(=O)O)c(=O)c2cc(F)c(N3CCN(Cn4nc(CN5CCN(c6ccc([N+](=O)[O-])cc6)CC5)n(Cc5ccccc5)c4=S)CC3)cc21
MIC (Pseudomonas aeruginosa [9]): 0.06 to 0.48 µg/mL (≈ 0.0809 to 0.647 µM) | MIC (Staphylococcus aureus [10]): 0.12 to 0.24 µg/mL (≈ 0.162 to 0.324 µM) | MIC (Enterococcus faecalis): 0.122 to 0.488 µg/mL (≈ 0.164 to 0.658 µM) | MIC (Bacillus cereus): 0.12 to 0.48 µg/mL (≈ 0.162 to 0.647 µM) | MIC [11]: 0.244 µg/mL (≈ 0.329 µM)

CCn1cc(C(=O)O)c(=O)c2cc(F)c(NNc3c[nH]c(=O)[nH]c3=O)c(F)c21
MIC (Pseudomonas aeruginosa [1]): > 500 µg/mL | MIC (Escherichia coli [2]): 170 µg/mL (≈ 432 µM) | MIC (Staphylococcus aureus [3]): 195 µg/mL (≈ 496 µM) | MIC (Bacillus subtilis): > 500 µg/mL

Nc1c(Nc2ccc(F)cc2)c(F)cc2c(=O)c(C(=O)O)cn(C3CC3)c12
MIC (Helicobacter pylori [4]): 2.5 µg/mL (≈ 6.73 µM) | MIC (Helicobacter pylori [5]): 5 µg/mL (≈ 13.5 µM)

COc1cc(/C=N\NC(=O)c2cn(C3CC3)c3c(OC)c(N4CCN(C)CC4)c(F)cc3c2=O)ccc1O
IC50 (PC-3): 14.8 µg/mL (≈ 28.3 µM) | inhibition zone (IZ) (Aspergillus clavatus): 12 mm | inhibition zone (IZ) (Candida albicans): 10 mm

COc1c(N2CCN(C)CC2)c(F)cc2c(=O)c(C(=O)N/N=C\c3cccc([N+](=O)[O-])c3)cn(C3CC3)c12
inhibition zone (IZ) (Aspergillus clavatus): 10 mm | inhibition zone (IZ) (Candida albicans): 12 mm

Cc1ccc(-n2nnc3c4c(cc(F)c32)c(=O)c(C(=O)O)cn4C2CC2)cc1
MIC (Helicobacter pylori [4]): 5 µg/mL (≈ 13.2 µM) | MIC (Helicobacter pylori [5]): 1.3 µg/mL (≈ 3.44 µM)

CCn1cc(C(=O)O)c(=O)c2cc(F)c(Nn3c(=O)[nH]cc(F)c3=O)c(F)c21
MIC (Pseudomonas aeruginosa [1]): > 500 µg/mL | MIC (Escherichia coli [2]): 120 µg/mL (≈ 303 µM) | MIC (Staphylococcus aureus [3]): 390 µg/mL (≈ 984 µM) | MIC (Bacillus subtilis): > 500 µg/mL

Nc1c(Nc2ccc(Cl)cc2)c(F)cc2c(=O)c(C(=O)O)cn(C3CC3)c12
MIC (Helicobacter pylori [4]): 5 µg/mL (≈ 12.9 µM) | MIC (Helicobacter pylori [5]): 2.5 µg/mL (≈ 6.45 µM)

CCn1cc(C(=O)O)c(=O)c2cc(F)c(N3CCN(C(C)=O)CC3)cc21 [4-N-ACETYL-1-PIPERAZINYL-NORFLOXACIN]
MIC (Pseudomonas aeruginosa [1]): > 500 µg/mL | MIC (Escherichia coli [2]): 0.012 µg/mL (≈ 0.0332 µM) | MIC (Staphylococcus aureus [3]): 10.7 µg/mL (≈ 29.7 µM) | MIC (Bacillus subtilis): 0.805 µg/mL (≈ 2.23 µM)

COc1c(N2CCN(C)CC2)c(F)cc2c(=O)c(C(=O)N/N=C\c3ccccc3)cn(C3CC3)c12
IC50 (PC-3): 16.3 µg/mL (≈ 34.1 µM) | inhibition zone (IZ) (Aspergillus clavatus): 11 mm

CCn1cc(C(=O)O)c(=O)c2cc(F)c(Nc3ncccn3)cc21
MIC (Pseudomonas aeruginosa [1]): > 500 µg/mL | MIC (Escherichia coli [2]): 510 µg/mL (≈ 1550 µM) | MIC (Staphylococcus aureus [3]): 515 µg/mL (≈ 1570 µM) | MIC (Bacillus subtilis): > 500 µg/mL

CCn1cc(C(=O)O)c(=O)c2cc(F)c(Cl)cc21
MIC (Pseudomonas aeruginosa [1]): 116 µg/mL (≈ 432 µM) | MIC (Escherichia coli [2]): 0.355 µg/mL (≈ 1.32 µM) | MIC (Staphylococcus aureus [3]): 0.535 µg/mL (≈ 1.98 µM) | MIC (Bacillus subtilis): 0.125 µg/mL (≈ 0.464 µM)

N[C@@H]1CCN2c3c(F)cc4c(=O)c(C(=O)O)cn(C5CC5)c4c3CCCC[C@H]12
MIC (Escherichia coli [6]): 2 µg/mL (≈ 5.19 µM) | MIC (Staphylococcus aureus [7]): 4 µg/mL (≈ 10.4 µM) | MIC (Pseudomonas aeruginosa [8]): 16 µg/mL (≈ 41.5 µM)

COc1c(N2CCN(C)CC2)c(F)cc2c(=O)c(C(=O)N/N=C\c3ccc(O)cc3)cn(C3CC3)c12
IC50 (PC-3): 14.4 µg/mL (≈ 29.2 µM) | inhibition zone (IZ) (Aspergillus clavatus): 12 mm | inhibition zone (IZ) (Candida albicans): 9 mm

COc1c(N2CCN(C)CC2)c(F)cc2c(=O)c(C(=O)N/N=C\c3cccc(N(C)C)c3)cn(C3CC3)c12
inhibition zone (IZ) (Aspergillus clavatus): 10 mm | inhibition zone (IZ) (Candida albicans): 8 mm

Nc1c(Nc2ccccc2)c(F)cc2c(=O)c(C(=O)O)cn(C3CC3)c12
MIC (Helicobacter pylori [4]): 0.6 µg/mL (≈ 1.7 µM) | MIC (Helicobacter pylori [5]): 1.3 µg/mL (≈ 3.68 µM)

COc1ccc(OC)c(/C=N\NC(=O)c2cn(C3CC3)c3c(OC)c(N4CCN(C)CC4)c(F)cc3c2=O)c1
IC50 (PC-3): 3 µg/mL (≈ 5.58 µM) | inhibition zone (IZ) (Aspergillus clavatus): 8 mm | inhibition zone (IZ) (Candida albicans): 10 mm

CCn1cc(C(=O)O)c(=O)c2cc(F)c(Nc3n[nH]c(N)n3)cc21
MIC (Pseudomonas aeruginosa [1]): > 500 µg/mL | MIC (Escherichia coli [2]): 150 µg/mL (≈ 451 µM) | MIC (Staphylococcus aureus [3]): > 500 µg/mL | MIC (Bacillus subtilis): > 500 µg/mL
